Data as given in patent US8853418B2, “Cyclopentylpyrazoles as N-type calcium channel blockers” (Janssen Pharmaceutica NV, priority 2012, dated 2014).
Like-named read-outs stand apart in the source and are kept apart here.

Key:
[1] = target: N-type calcium channel (α1B (Cav2.2), β3 and α2δ subunits) (Homo sapiens, UniProt Q00975); assay: Functional Assay: Antagonism of N-Type Calcium Channel (FDSS calcium mobilization, KCl depolarization); assay type: cell-based; conditions: for IC50: HEK cell line, 50 mM KCl depolarization, six-point concentration-response, read-out: FDSS IC50
In short: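 HEK cells stably co-expressing α1B (Cav2.2), β3 and α2δ were loaded with calcium dye, then given compound with fluorescence recorded for 5 min before 50 mM KCl depolarisation and 3 min more reading. IC50 came from six-point curves of maximal fluorescence, normalised to KCl maximum and buffer minimum.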

[2] = target: N-type calcium channel (Homo sapiens, UniProt Q00975); assay: Automated Electrophysiology Assay (QPatch-HT whole-cell patch clamp; low- and high-frequency stimulation); assay type: cell-based; conditions: for inhibition at 0.1 µM / QPatch at High Frequency % Inhibition / QPatch at Low Frequency % Inhibition: 0.1 μM
[3] = tested on: Complete Freund's Adjuvant (CFA)-Induced Hyperalgesia; assay: Complete Freund's Adjuvant (CFA)-Induced Hyperalgesia, radiant heat; assay type: in vivo, Sprague-Dawley rats; conditions: rat CFA radiant heat model of inflammatory pain; FIG. 1
[4] = high-frequency stimulation (15th pulse), read-out: QPatch at High Frequency % Inhibition
[5] = low frequency, read-out: QPatch at Low Frequency % Inhibition
[6] = high-frequency stimulation (15th pulse)

Sequence of N-type calcium channel (Q00975 whole entry): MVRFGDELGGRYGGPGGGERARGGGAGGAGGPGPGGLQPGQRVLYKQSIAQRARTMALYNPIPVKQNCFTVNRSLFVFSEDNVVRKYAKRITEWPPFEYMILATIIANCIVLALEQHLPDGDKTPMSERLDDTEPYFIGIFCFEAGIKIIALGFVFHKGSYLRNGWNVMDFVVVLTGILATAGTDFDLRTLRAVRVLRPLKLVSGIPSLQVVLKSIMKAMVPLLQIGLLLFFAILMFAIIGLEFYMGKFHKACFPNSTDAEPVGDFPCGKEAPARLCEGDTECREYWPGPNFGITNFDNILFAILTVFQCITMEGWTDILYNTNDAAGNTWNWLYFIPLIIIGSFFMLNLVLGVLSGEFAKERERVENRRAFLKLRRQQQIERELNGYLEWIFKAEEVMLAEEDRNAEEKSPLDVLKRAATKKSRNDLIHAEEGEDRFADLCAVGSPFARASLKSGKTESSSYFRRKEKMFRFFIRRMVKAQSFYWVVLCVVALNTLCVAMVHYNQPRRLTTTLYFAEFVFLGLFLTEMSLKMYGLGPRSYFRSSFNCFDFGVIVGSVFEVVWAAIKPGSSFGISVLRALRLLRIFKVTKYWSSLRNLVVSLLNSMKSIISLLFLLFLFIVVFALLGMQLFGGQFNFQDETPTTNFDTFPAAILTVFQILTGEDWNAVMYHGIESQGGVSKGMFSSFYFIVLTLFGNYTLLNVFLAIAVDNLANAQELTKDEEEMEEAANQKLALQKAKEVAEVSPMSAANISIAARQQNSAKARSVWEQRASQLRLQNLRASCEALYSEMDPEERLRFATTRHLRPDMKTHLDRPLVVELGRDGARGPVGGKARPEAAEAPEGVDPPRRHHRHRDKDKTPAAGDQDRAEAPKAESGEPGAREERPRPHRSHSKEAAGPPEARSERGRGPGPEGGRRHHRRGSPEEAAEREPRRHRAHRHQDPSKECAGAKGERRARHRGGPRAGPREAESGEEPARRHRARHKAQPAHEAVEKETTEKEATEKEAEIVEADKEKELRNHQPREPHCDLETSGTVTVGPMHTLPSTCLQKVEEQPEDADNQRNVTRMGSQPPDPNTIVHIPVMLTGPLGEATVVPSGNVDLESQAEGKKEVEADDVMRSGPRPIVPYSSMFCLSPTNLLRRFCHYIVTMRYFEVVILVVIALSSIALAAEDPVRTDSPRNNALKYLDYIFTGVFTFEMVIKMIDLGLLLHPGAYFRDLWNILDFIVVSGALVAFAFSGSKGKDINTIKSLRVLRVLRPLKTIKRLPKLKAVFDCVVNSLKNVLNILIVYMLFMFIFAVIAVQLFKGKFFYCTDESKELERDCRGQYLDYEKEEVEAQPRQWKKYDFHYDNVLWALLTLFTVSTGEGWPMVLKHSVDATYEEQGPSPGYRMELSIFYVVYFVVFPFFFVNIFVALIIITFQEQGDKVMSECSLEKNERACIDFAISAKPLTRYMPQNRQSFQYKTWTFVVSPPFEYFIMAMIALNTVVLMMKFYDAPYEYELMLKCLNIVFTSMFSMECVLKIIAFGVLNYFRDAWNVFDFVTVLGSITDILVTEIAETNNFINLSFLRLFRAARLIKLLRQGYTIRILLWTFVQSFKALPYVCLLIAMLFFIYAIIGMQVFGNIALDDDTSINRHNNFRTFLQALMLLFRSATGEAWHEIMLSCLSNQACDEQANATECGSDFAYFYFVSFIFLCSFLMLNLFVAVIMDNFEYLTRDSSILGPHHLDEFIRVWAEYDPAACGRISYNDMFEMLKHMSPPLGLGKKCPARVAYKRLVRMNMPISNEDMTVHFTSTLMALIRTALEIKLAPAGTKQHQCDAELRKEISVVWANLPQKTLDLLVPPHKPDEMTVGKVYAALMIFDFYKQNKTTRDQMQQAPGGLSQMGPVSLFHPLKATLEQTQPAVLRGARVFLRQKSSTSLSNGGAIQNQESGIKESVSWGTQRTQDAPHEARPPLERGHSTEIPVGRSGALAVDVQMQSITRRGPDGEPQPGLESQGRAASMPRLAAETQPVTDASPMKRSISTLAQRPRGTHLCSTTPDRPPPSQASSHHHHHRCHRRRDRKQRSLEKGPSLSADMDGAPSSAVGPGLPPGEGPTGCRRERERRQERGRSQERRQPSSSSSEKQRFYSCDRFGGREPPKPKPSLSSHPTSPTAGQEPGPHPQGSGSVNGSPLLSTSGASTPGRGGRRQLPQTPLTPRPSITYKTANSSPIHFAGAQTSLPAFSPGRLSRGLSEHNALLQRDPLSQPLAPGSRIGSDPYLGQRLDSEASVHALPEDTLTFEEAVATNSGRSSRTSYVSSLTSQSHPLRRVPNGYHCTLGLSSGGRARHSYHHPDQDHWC
Sequence of N-type calcium channel (P54284 whole entry partner): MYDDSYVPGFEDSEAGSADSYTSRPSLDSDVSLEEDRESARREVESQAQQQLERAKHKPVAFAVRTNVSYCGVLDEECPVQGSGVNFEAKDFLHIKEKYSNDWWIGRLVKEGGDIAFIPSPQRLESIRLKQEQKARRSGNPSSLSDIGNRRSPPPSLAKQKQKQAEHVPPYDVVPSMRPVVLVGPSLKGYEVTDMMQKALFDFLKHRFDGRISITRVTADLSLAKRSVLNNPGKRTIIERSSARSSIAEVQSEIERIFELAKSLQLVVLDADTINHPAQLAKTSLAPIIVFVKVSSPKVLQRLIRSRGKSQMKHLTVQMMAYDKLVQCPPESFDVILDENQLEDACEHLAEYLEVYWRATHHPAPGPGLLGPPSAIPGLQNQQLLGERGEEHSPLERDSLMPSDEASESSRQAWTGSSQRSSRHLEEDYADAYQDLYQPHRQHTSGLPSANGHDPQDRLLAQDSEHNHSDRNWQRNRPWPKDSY
Sequence of N-type calcium channel (P54289 25-946 partner limits assumed): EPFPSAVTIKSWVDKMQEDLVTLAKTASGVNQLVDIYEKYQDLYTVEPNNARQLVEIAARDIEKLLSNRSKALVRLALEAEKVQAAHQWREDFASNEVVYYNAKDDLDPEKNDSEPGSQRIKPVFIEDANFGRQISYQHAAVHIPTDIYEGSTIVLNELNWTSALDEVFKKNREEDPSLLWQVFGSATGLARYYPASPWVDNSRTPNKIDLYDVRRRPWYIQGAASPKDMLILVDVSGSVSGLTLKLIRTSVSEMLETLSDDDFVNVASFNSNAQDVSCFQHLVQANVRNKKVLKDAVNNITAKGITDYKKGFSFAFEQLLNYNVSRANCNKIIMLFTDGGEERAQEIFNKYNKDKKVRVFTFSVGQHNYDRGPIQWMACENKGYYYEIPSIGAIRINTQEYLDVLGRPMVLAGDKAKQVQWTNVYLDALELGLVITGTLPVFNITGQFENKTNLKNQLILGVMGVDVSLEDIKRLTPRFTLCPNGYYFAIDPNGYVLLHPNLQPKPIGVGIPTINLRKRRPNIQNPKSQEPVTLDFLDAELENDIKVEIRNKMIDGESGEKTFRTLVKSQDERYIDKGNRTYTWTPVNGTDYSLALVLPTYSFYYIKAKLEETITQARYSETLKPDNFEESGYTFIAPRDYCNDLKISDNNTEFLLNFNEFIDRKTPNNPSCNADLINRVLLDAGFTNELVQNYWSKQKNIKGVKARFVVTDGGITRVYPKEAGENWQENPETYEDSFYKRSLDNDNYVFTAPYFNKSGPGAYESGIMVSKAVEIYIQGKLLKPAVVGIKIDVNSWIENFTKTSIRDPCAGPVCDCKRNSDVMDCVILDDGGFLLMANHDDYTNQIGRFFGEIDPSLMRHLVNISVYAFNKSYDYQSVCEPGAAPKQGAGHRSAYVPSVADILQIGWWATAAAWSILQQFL
Sequence of N-type calcium channel (P54289 947-1103 partner limits assumed): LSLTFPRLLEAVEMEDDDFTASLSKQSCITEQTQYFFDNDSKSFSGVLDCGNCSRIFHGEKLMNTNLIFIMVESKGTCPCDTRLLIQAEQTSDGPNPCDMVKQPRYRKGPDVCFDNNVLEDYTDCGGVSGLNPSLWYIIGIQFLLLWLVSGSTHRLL
Sequence of N-type calcium channel (α1B (Cav2.2), β3 and α2δ subunits) (Q00975 whole entry): as the sequence (Q00975 whole entry) above
Sequence of N-type calcium channel (α1B (Cav2.2), β3 and α2δ subunits) (P54284 whole entry partner): as the sequence (P54284 whole entry partner) above
Sequence of N-type calcium channel (α1B (Cav2.2), β3 and α2δ subunits) (P54289 25-946 partner limits assumed): as the sequence (P54289 25-946 partner limits assumed) above
Sequence of N-type calcium channel (α1B (Cav2.2), β3 and α2δ subunits) (P54289 947-1103 partner limits assumed): as the sequence (P54289 947-1103 partner limits assumed) above

| SMILES | inhibition at 0.33 µM ([1]; 0.33 μM) [%] | IC50 [1] [nM] | inhibition at 0.1 µM [2, 4] [%] | inhibition at 0.1 µM [2, 5] [%] | QPatch at High Frequency % Inhibition [2, 6] [%] | QPatch at Low Frequency % Inhibition ([2]; low frequency) [%] | % Inhibition (%) at 0.33 μM ([1]; 0.33 μM) [%] | inhibition at 1 µM [2, 4] [%] | inhibition at 1 µM [2, 5] [%] | antihyperalgesic effect [3] | inhibition at 0.33 µM [1] [%] |
| --- | --- | --- | --- | --- | --- | --- | --- | --- | --- | --- | --- |
| COc1ccccc1-n1nc2c(c1-c1ccc(Cl)cc1)CC1(C2)OCC(C)(C)CO1 [Compound 71, 3-(4-chlorophenyl)-2-(2-methoxyphenyl)-5′,5′-dimethyl-2,6-dihydro-4H-spiro[cyclopenta[c]pyrazole-5,2′-[1,3]dioxane]] | 89 | 13 | 37 | 21 |  |  |  |  |  | antihyperalgesic effect |  |
| COc1ccccc1-n1nc2c(c1-c1ccc(C#N)cc1)CC1(C2)OC(C)(C)C(C)(C)O1 [Compound 111, 4-[2-(2-methoxyphenyl)-4′,4′,5′,5′-tetramethyl-2,6-dihydro-4H-spiro[cyclopenta[c]pyrazole-5,2′-[1,3]dioxolan]-3-yl]benzonitrile] | 90 | 3.7 | 21 | -5 |  |  |  |  |  |  |  |
| COc1ccccc1-n1nc2c(c1-c1ccc(Cl)cc1)CC1(C2)O[C@H]2CCCC[C@H]2O1 (stereo partly drawn) [Compound 112, (3aR,7aS)-3′-(4-chlorophenyl)-2′-(2-methoxyphenyl)-2′,3a,4,5,6,6′,7,7a-octahydro-4′H-spiro[1,3-benzodioxole-2,5′-cyclopenta[c]pyrazole]] |  |  | 26 | 7 |  |  |  |  |  |  | 90 |
| COc1ccccc1-n1nc2c(c1-c1ccc(Cl)cc1)CC1(C2)O[C@H]2CCC[C@@H]2O1 [Compound 113, (3aS,6aS)-3′-(4-chlorophenyl)-2′-(2-methoxyphenyl)-2′,4,5,6,6′,6a-hexahydro-3aH,4′H-spiro[cyclopenta[d][1,3]dioxole-2,5′-cyclopenta[c]pyrazole]] | 82 | 42 | 3 | -4 |  |  |  |  |  |  |  |
| COc1ccccc1-n1nc2c(c1-c1ccc(Cl)cc1)CC1(C2)O[C@H]2CCC[C@H]2O1 (stereo partly drawn) [Compound 114, (3aR,6aS)-3′-(4-chlorophenyl)-2′-(2-methoxyphenyl)-2′,4,5,6,6′,6a-hexahydro-3aH,4′H-spiro[cyclopenta[d][1,3]dioxole-2,5′-cyclopenta[c]pyrazole]] | 90 | 5 |  |  | 65 | 44 |  |  |  |  |  |
| COc1ccccc1-n1nc2c(c1-c1ccc(Cl)cc1)CC1(C2)O[C@H]2CCC[C@H]2O1 (stereo partly drawn) [Compound 115, (3aR,6aS)-3′-(4-chlorophenyl)-2′-(2-methoxyphenyl)-2′,4,5,6,6′,6a-hexahydro-3aH,4′H-spiro[cyclopenta[d][1,3]dioxole-2,5′-cyclopenta[c]pyrazole]] |  | 11 |  |  | 37 | 8 | 85 |  |  |  |  |
| COc1ccccc1-n1nc2c(c1-c1ccc(Cl)cc1)CC(N1CCC(F)(F)C1)C2 (centres unmarked) [Compound 123, 3-(4-chlorophenyl)-5-(3,3-difluoropyrrolidin-1-yl)-2-(2-methoxyphenyl)-2,4,5,6-tetrahydrocyclopenta[c]pyrazole] | 91 | 19 | 26 | 2 |  |  |  |  |  |  |  |

The next lines start with results.

| inhibition at 0.33 µM ([1]; 0.33 μM) [%] | IC50 [1] [nM] | inhibition at 0.1 µM [2, 4] [%] | inhibition at 0.1 µM [2, 5] [%] | QPatch at High Frequency % Inhibition [2, 6] [%] | QPatch at Low Frequency % Inhibition ([2]; low frequency) [%] | % Inhibition (%) at 0.33 μM ([1]; 0.33 μM) [%] | inhibition at 1 µM [2, 4] [%] | inhibition at 1 µM [2, 5] [%] | SMILES | antihyperalgesic effect [3] | inhibition at 0.33 µM [1] [%] |
| --- | --- | --- | --- | --- | --- | --- | --- | --- | --- | --- | --- |
| 88 | 43 |  |  |  |  |  | 73 | 68 | COc1ccccc1-n1nc2c(c1-c1ccc(C#N)cc1)C[C@H](n1cc(C3CCCC3)nn1)C2 [Compound 124, 4-[(5S)-5-(4-cyclopentyl-1H-1,2,3-triazol-1-yl)-2-(2-methoxyphenyl)-2,4,5,6-tetrahydrocyclopenta[c]pyrazol-3-yl]benzonitrile] |  |  |
| 97 | 17 | 26 | 13 |  |  |  |  |  | COc1ccccc1-n1nc2c(c1-c1ccc(C#N)cc1)C[C@H](n1cc(CC(C)C)nn1)C2 [Compound 127, 4-{(5S)-2-(2-methoxyphenyl)-5-[4-(2-methylpropyl)-1H-1,2,3-triazol-1-yl]-2,4,5,6-tetrahydrocyclopenta[c]pyrazol-3-yl}benzonitrile] |  |  |
| 92 | 50 |  |  |  |  |  | 57 | 39 | COc1ccccc1-n1nc2c(c1-c1ccc(C#N)cc1)C[C@H](n1cc(C(C)(C)C)nn1)C2 [Compound 130, 4-[(5S)-5-(4-tert-butyl-1H-1,2,3-triazol-1-yl)-2-(2-methoxyphenyl)-2,4,5,6-tetrahydrocyclopenta[c]pyrazol-3-yl]benzonitrile] |  |  |
| 87 | 37 |  |  |  |  |  | 66 | 72 | CCc1ncn([C@@H]2Cc3nn(-c4ccccc4OC)c(-c4ccc(C#N)cc4)c3C2)c1CC [Compound 139, 4-[(5S)-5-(4,5-diethyl-1H-imidazol-1-yl)-2-(2-methoxyphenyl)-2,4,5,6-tetrahydrocyclopenta[c]pyrazol-3-yl]benzonitrile] |  |  |
